Experimental data: patent US11814367B2, “Inhibitors of glycogen synthase 1 (GYS1) and methods of use thereof” (Maze Therapeutics, Inc., priority 2021, dated 2023)

Experiments:
[1] = tested on: hGYS1 enzyme / glycogen synthesis in HeLa cells; assay: GYS1 cell based assay (glycogen synthesis, Glucose-glo); design: species or system human; conditions: Homo sapiens, HeLa, 24 h, 24 h incubation, 20 mM glucose, geometric mean of at least 2 runs
How it was run: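 HeLa cells starved 24 h in medium containing only 1× Glutamax were plated onto compound in medium with 20 mM glucose (1% DMSO final) for 24 h, 37 °C, 5% CO2. Acid lysates were Tris-quenched, glucoamylase-digested (pH 5.3, 1 h, 37 °C) and read by Glucose-glo luminescence. IC50 came from Hill fits, as geometric mean of ≥2 runs.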

[2] = target: hGYS1 enzyme (recombinant hGYS1/GN1 protein) (Homo sapiens (Human), UniProt P13807); assay: GYS1 coupled enzyme assay (PK/LDH); format: biochemical; conditions: hGYS1/GN1 50 nM, UDP-Glucose 0.8 mM, G6P 1 mM; geometric mean of at least 2 runs
Sequence of hGYS1 enzyme (recombinant hGYS1/GN1 protein) (P13807 whole entry): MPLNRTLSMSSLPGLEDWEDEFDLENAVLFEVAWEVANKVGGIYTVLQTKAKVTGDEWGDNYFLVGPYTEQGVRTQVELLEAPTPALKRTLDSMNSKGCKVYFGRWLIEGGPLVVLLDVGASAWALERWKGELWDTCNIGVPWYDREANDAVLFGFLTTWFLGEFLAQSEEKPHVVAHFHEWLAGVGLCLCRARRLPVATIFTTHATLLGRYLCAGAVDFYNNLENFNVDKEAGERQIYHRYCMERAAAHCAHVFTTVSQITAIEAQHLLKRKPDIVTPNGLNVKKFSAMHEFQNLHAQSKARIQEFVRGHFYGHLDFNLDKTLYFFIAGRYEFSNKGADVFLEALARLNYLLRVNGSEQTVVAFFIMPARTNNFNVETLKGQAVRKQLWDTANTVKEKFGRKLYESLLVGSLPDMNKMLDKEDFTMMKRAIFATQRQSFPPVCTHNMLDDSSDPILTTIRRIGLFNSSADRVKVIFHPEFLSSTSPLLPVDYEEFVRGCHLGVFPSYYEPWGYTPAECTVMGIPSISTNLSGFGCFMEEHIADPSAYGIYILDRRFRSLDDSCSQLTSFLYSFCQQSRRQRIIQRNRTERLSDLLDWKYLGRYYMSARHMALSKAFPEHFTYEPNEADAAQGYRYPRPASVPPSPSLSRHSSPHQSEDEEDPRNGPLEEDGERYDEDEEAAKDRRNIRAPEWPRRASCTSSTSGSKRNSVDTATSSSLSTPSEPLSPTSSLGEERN
Sequence of hGYS1 enzyme (recombinant hGYS1/GN1 protein) (P46976 whole entry partner): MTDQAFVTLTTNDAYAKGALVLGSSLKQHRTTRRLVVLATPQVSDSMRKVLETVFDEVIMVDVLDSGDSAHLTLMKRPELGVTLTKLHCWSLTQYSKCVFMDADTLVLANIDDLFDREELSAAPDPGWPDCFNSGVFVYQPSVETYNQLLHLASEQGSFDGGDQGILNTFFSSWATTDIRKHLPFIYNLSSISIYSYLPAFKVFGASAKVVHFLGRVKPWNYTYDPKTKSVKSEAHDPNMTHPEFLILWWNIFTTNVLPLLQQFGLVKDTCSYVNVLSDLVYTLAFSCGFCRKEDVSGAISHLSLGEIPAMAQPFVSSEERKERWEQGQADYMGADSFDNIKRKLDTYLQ

| IC50 [1] [nM] | IC50 [2] [nM] | Structure (SMILES) |
| --- | --- | --- |
| 1390 | 45 | CC(C)c1ccc([C@@H](NC(=O)[C@@H]2C[C@@H](F)CN2C(=O)Cn2nncc2N2CC(F)(F)C2)c2ccccc2)nc1 [Compound 714, (2S,4R)-1-{2-[5-(3,3-difluoroazetidin-1-yl)-1H-1,2,3-triazol-1-yl]acetyl}-4-fluoro-N-[(S)-phenyl[5-(propan-2-yl)pyridin-2-yl]methyl]pyrrolidine-2-carboxamide] |
| > 25800 | 1480 | CN(C)c1cnn(CC(=O)N2C[C@H](F)C[C@H]2C(=O)N[C@H](c2ccccc2)c2ccc(C3CC3)c(F)n2)n1 [Compound 717, (2S,4R)-N-[(R)-(5-cyclopropyl-6-fluoropyridin-2-yl)(phenyl)methyl]-1-{2-[4-(dimethylamino)-2H-1,2,3-triazol-2-yl]acetyl}-4-fluoropyrrolidine-2-carboxamide] |
| > 30000 | 2620 | O=C(N[C@H](c1ccccc1)c1ccc(C2CC2)c(F)n1)[C@@H]1C[C@@H](F)CN1C(=O)Cc1cccn2c(=O)[nH]nc12 [Compound 718, (2S,4R)-N-[(R)-(5-cyclopropyl-6-fluoropyridin-2-yl)(phenyl)methyl]-4-fluoro-1-(2-{3-oxo-2H,3H-[1,2,4]triazolo[4,3-a]pyridin-8-yl}acetyl)pyrrolidine-2-carboxamide] |
| > 30000 | 2450 | Cc1nccc(NCC(=O)N2C[C@H](F)C[C@H]2C(=O)N[C@H](c2ccccc2)c2ccc(C3CC3)c(F)n2)n1 [Compound 720, (2S,4R)-N-[(R)-(5-cyclopropyl-6-fluoropyridin-2-yl)(phenyl)methyl]-4-fluoro-1-{2-[(2-methylpyrimidin-4-yl)amino]acetyl}pyrrolidine-2-carboxamide] |
| 1090 | 79 | O=C(N[C@@H](c1ccccc1)c1ccc(C2CC2)c(F)n1)[C@@H]1C[C@@H](F)CN1C(=O)Cc1cnn[nH]1 [Compound 721, (2S,4R)-N-[(S)-(5-cyclopropyl-6-fluoropyridin-2-yl)(phenyl)methyl]-4-fluoro-1-[2-(1H-1,2,3-triazol-5-yl)acetyl]pyrrolidine-2-carboxamide] |
| 760 | 37 | O=C(N[C@@H](c1ccccc1)c1ccc(C2CC2)c(F)n1)[C@@H]1C[C@@H](F)CN1C(=O)Cn1ccc(C(F)(F)F)n1 [Compound 730, (2S,4R)-N-[(S)-(5-cyclopropyl-6-fluoropyridin-2-yl)(phenyl)methyl]-4-fluoro-1-{2-[3-(trifluoromethyl)-1H-pyrazol-1-yl]acetyl}pyrrolidine-2-carboxamide] |
| 550 | 37 | CCOc1ncc(CC(=O)N2C[C@H](F)C[C@H]2C(=O)N[C@@H](c2ccccc2)c2ccc(C3CC3)c(F)n2)cc1C [Compound 737, (2S,4R)-N-[(S)-(5-cyclopropyl-6-fluoropyridin-2-yl)(phenyl)methyl]-1-[2-(6-ethoxy-5-methylpyridin-3-yl)acetyl]-4-fluoropyrrolidine-2-carboxamide] |
| 1210 | 105 | O=C(N[C@@H](c1ccccc1)c1ccc(C2CC2)c(F)n1)[C@@H]1C[C@@H](F)CN1C(=O)Cc1nc(C(F)(F)F)co1 [Compound 738, (2S,4R)-N-[(S)-(5-cyclopropyl-6-fluoropyridin-2-yl)(phenyl)methyl]-4-fluoro-1-{2-[4-(trifluoromethyl)-1,3-oxazol-2-yl]acetyl}pyrrolidine-2-carboxamide] |
| 340 | 17 | CCn1cc(CC(=O)N2C[C@H](F)C[C@H]2C(=O)N[C@@H](c2ccccc2)c2ccc(C3CC3)c(F)n2)cc(C)c1=O [Compound 739, (2S,4R)-N-[(S)-(5-cyclopropyl-6-fluoropyridin-2-yl)(phenyl)methyl]-1-[2-(1-ethyl-5-methyl-6-oxo-1,6-dihydropyridin-3-yl)acetyl]-4-fluoropyrrolidine-2-carboxamide] |
| 320 | 9 | CCn1cc(C)cc(CC(=O)N2C[C@H](F)C[C@H]2C(=O)N[C@@H](c2ccccc2)c2ccc(C3CC3)c(F)n2)c1=O [Compound 740, (2S,4R)-N-[(S)-(5-cyclopropyl-6-fluoropyridin-2-yl)(phenyl)methyl]-1-[2-(1-ethyl-5-methyl-2-oxo-1,2-dihydropyridin-3-yl)acetyl]-4-fluoropyrrolidine-2-carboxamide] |
| 710 | 16 | CCn1cccc(CC(=O)N2C[C@H](F)C[C@H]2C(=O)N[C@@H](c2ccccc2)c2ccc(C3CC3)c(F)n2)c1=O [Compound 741, (2S,4R)-N-[(S)-(5-cyclopropyl-6-fluoropyridin-2-yl)(phenyl)methyl]-1-[2-(1-ethyl-2-oxo-1,2-dihydropyridin-3-yl)acetyl]-4-fluoropyrrolidine-2-carboxamide] |
| 630 | 24 | CCn1cc(CC(=O)N2C[C@H](F)C[C@H]2C(=O)N[C@@H](c2ccccc2)c2ccc(C3CC3)c(F)n2)ncc1=O [Compound 742, (2S,4R)-N-[(S)-(5-cyclopropyl-6-fluoropyridin-2-yl)(phenyl)methyl]-1-[2-(4-ethyl-5-oxo-4,5-dihydropyrazin-2-yl)acetyl]-4-fluoropyrrolidine-2-carboxamide] |
| 480 | 28 | COc1nc(CC(=O)N2C[C@H](F)C[C@H]2C(=O)N[C@@H](c2ccccc2)c2ccc(C3CC3)c(F)n2)nn1C [Compound 743, (2S,4R)-N-[(S)-(5-cyclopropyl-6-fluoropyridin-2-yl)(phenyl)methyl]-4-fluoro-1-[2-(5-methoxy-1-methyl-1H-1,2,4-triazol-3-yl)acetyl]pyrrolidine-2-carboxamide] |
| 1520 | 46 | O=C(N[C@@H](c1ccccc1)c1ccc(C2CC2)c(F)n1)[C@@H]1C[C@@H](F)CN1C(=O)CNC(=O)N(Cc1ccccc1)C(F)(F)F [Compound 744, (2S,4R)-1-(2-{[benzyl(trifluoromethyl)carbamoyl]amino}acetyl)-N-[(S)-(5-cyclopropyl-6-fluoropyridin-2-yl)(phenyl)methyl]-4-fluoropyrrolidine-2-carboxamide] |
| 510 | 24 | O=C(N[C@@H](c1ccccc1)c1ccc(C2CC2)c(F)n1)[C@@H]1C[C@@H](F)CN1C(=O)Cn1nncc1C(F)(F)F [Compound 745, (2S,4R)-N-[(S)-(5-cyclopropyl-6-fluoropyridin-2-yl)(phenyl)methyl]-4-fluoro-1-{2-[5-(trifluoromethyl)-1H-1,2,3-triazol-1-yl]acetyl}pyrrolidine-2-carboxamide] |
| 1620 | 70 | O=C(N[C@@H](c1ccccc1)c1ccc(C2CC2)c(F)n1)[C@@H]1C[C@@H](F)CN1C(=O)Cc1c[nH]c(=O)cn1 [Compound 746, (2S,4R)-N-[(S)-(5-cyclopropyl-6-fluoropyridin-2-yl)(phenyl)methyl]-4-fluoro-1-[2-(5-oxo-4,5-dihydropyrazin-2-yl)acetyl]pyrrolidine-2-carboxamide] |
| 420 | 16 | O=C(N[C@@H](c1ccccc1)c1ccc(C2CC2)c(F)n1)[C@@H]1C[C@@H](F)CN1C(=O)Cn1nncc1C(F)F [Compound 747, (2S,4R)-N-[(S)-(5-cyclopropyl-6-fluoropyridin-2-yl)(phenyl)methyl]-1-{2-[5-(difluoromethyl)-1H-1,2,3-triazol-1-yl]acetyl}-4-fluoropyrrolidine-2-carboxamide] |
| 530 | 15 | CCN(CC)c1cnnn1CC(=O)N1C[C@H](F)C[C@H]1C(=O)N[C@@H](c1ccccc1)c1ccc(C2CC2)c(F)n1 [Compound 748, (2S,4R)-N-[(S)-(5-cyclopropyl-6-fluoropyridin-2-yl)(phenyl)methyl]-1-{2-[5-(diethylamino)-1H-1,2,3-triazol-1-yl]acetyl}-4-fluoropyrrolidine-2-carboxamide] |
| 250 | 6 | Cn1cc(CC(=O)N2C[C@H](F)C[C@H]2C(=O)N[C@@H](c2ccccc2)c2ccc(C3CC3)c(F)n2)c(C(F)F)n1 [Compound 749, (2S,4R)-N-[(S)-(5-cyclopropyl-6-fluoropyridin-2-yl)(phenyl)methyl]-1-{2-[3-(difluoromethyl)-1-methyl-1H-pyrazol-4-yl]acetyl}-4-fluoropyrrolidine-2-carboxamide] |
| 260 | 11 | Cc1cc(C(F)F)n(CC(=O)N2C[C@H](F)C[C@H]2C(=O)N[C@@H](c2ccccc2)c2ccc(C3CC3)c(F)n2)n1 [Compound 750, (2S,4R)-N-[(S)-(5-cyclopropyl-6-fluoropyridin-2-yl)(phenyl)methyl]-1-{2-[5-(difluoromethyl)-3-methyl-1H-pyrazol-1-yl]acetyl}-4-fluoropyrrolidine-2-carboxamide] |
| 470 | 13 | Cn1ncc(CC(=O)N2C[C@H](F)C[C@H]2C(=O)N[C@@H](c2ccccc2)c2ccc(C3CC3)c(F)n2)c1C(F)F [Compound 751, (2S,4R)-N-[(S)-(5-cyclopropyl-6-fluoropyridin-2-yl)(phenyl)methyl]-1-{2-[5-(difluoromethyl)-1-methyl-1H-pyrazol-4-yl]acetyl}-4-fluoropyrrolidine-2-carboxamide] |
| 640 | 21 | Cc1cc(C(F)F)nn1CC(=O)N1C[C@H](F)C[C@H]1C(=O)N[C@@H](c1ccccc1)c1ccc(C2CC2)c(F)n1 [Compound 752, (2S,4R)-N-[(S)-(5-cyclopropyl-6-fluoropyridin-2-yl)(phenyl)methyl]-1-{2-[3-(difluoromethyl)-5-methyl-1H-pyrazol-1-yl]acetyl}-4-fluoropyrrolidine-2-carboxamide] |
| 320 | 21 | CCn1ccnc(CC(=O)N2C[C@H](F)C[C@H]2C(=O)N[C@@H](c2ccccc2)c2ccc(C3CC3)c(F)n2)c1=O [Compound 753, (2S,4R)-N-[(S)-(5-cyclopropyl-6-fluoropyridin-2-yl)(phenyl)methyl]-1-[2-(4-ethyl-3-oxo-3,4-dihydropyrazin-2-yl)acetyl]-4-fluoropyrrolidine-2-carboxamide] |
